Results reported in patent US9617216B2, “Antifungal oxodihydropyridinecarbohydrazide derivative” (Daewoong Pharmaceutical Co., Ltd., priority 2013, dated 2017).
In brackets after ≈: the same amount, converted by molar mass.

Experiments:
Format in all cases: cell-based
[1] = tested on: Candida albicans; experiment: In vitro antifungal activity test (MIC), Candida albicans; conditions: concentration at which growth is inhibited by 80% vs negative control, 35° C., 24 hours, RPMI 1640, alama blue; for MIC80: Candida albicans
Procedure: (§1) The antifungal activities of the compounds of the present invention were evaluated using Candida albicans as yeast fungus, and Aspergillus fumigatus as a filamentous fungus. The above fungi used were all purchased from American Type Culture Collection (ATCC). The strains used in the experiment were inoculated into a Sabouraud dextrose agar medium, and then cultured at 35° C. for a sufficient period of time, e.g., 24 hours for Candida albicans, and about 7 days for Aspergillus fumigatus. As for Candida albicans, about 5 to 7 single colonies were taken from the cultured medium, sufficiently suspended in 1 ml of 0.85% sterile saline solution, and adjusted to have an optical density of 0.095 to 0.107 at 530 nm. A preparation of a strain diluent was diluted in Roswell park memorial institute (RPMI) 1640 medium at a 1:10 ratio, and the resultant was diluted again at a 1:100 ratio to obtain an inoculation preparation for Candida albicans with a concentration of 1.0×10^3 to 5.0×10^3 CFU/mL. As for Aspergillus fumigatus, the cultured Sabouraud dextrose agar was added with 1 mL of 0.2% Tween 20 diluted with 0.85% sterile saline solution, and then the plate was shaken to detach conidium from the plate. The solution collected from the plate surface was transferred into a sterile tube, and placed at room temperature for 5 minutes to deposit heavy substances. The resulting supernatant was transferred into the sterile tube, sufficiently suspended for about 15 seconds, and prepared a strain diluent with a concentration of 0.4×10^6 to 5.0×10^6 CFU/mL using a hemocytometer. The thus prepared strain diluent was diluted in RPMI 1640 medium at a 1:100 ratio to obtain an inoculation preparation for Aspergillus fumigatus. Candida albicans was cultured at 35° C. for 24 hours and Aspergillus fumigatus was cultured at 35° C. for 48 hours, and the concentrations, at which growth is inhibited by 80% or 50% compared to a negative control group, were determined using alama blue color developing reagent. All experiments were repeated twice for each concentration, and the results of antifungal activities (MIC80 MIC50 μg/mL) are shown in Tables 1 to 2.

[2] = tested on: Candida albicans; experiment: In vitro fungicidal activity test (MFC, minimum fungicidal concentration); conditions: minimum concentration with no fungal growth, Sabouraud dextrose agar plate, 35° C., 48 hours, naked eye; for MFC: Candida albicans
Procedure: As samples of fungicidal agents, 10 mM stock solutions were diluted 10-fold by adding with RPMI 1640 medium, followed by a 5-fold serial dilution, and used as the highest concentration for evaluation of antifungal activity (MIC). The samples with the highest concentration of the fungicidal agents were treated with a 2-fold serial dilution into 11 different concentrations, and the final concentrations were determined by mixing with the strains at a 1:1 ratio. In particular, the concentration of dimethylsulfoxide used as an excipient was made to a final 1% (VN). The evaluations of the fungicidal activity of Candida albicans were performed using a test plate already completed of antifungal activity, from the highest concentration of a given sample to the concentration right next to the concentration determined to be MIC. Test solutions at each concentration were pipetted about 5 times, all were collected (about a total of 225 μL), and added into a 12-well Sabouraud dextrose agar plate.

[3] = tested on: Aspergillus fumigatus; experiment: In vitro antifungal activity test (MIC), Aspergillus fumigatus; conditions: concentration at which growth is inhibited by 50% vs negative control, 35° C., 48 hours, RPMI 1640, alama blue; for MIC50: Aspergillus fumigatus
Procedure: as §1

Structure (SMILES) | MIC80 [1] [µg/mL] | MIC50 [3] [µg/mL] | MFC [2] [µg/mL] | Candida albicans MIC80 [1] [µg/mL] | Candida albicans MFC [2] [µg/mL] | Aspergillus fumigatus MIC50 [3] [µg/mL]
Cn1cc(C(=O)NNc2ccc(Cl)cc2Cl)ccc1=O [Example 15, N′-(2,4-dichlorophenyl)-1-methyl-6-oxo-1,6-dihydropyridine-3-carbohydrazide] | 0.03 (≈ 0.0961 µM) | 1.95 (≈ 6.25 µM) |  |  |  | 
Cn1cc(C(=O)NNc2ccc(F)nc2)ccc1=O [Example 18, N′-(6-fluoropyridine-3-yl)-1-methyl-6-oxo-1,6-dihydropyridine-3-carbohydrazide] | 0.03 (≈ 0.114 µM) | 0.4 (≈ 1.53 µM) |  |  |  | 
Cn1cc(C(=O)NNc2ccccc2F)ccc1=O [Example 1, N′-(2-fluorophenyl)-1-methyl-6-oxo-1,6-dihydropyridine-3-carbohydrazide] | 0.05 (≈ 0.191 µM) | 0.1 (≈ 0.383 µM) |  |  |  | 
Cn1cc(C(=O)NNc2ccc(S(=O)(=O)C(F)(F)F)cc2)ccc1=O [Example 10, 1-methyl-6-oxo-N′-(4-((trifluoromethyl)sulfonyl)phenyl)-1,6-dihydropyridine-3-carbohydrazide] | 0.04 (≈ 0.107 µM) | 0.1 (≈ 0.266 µM) |  |  |  | 
COc1ncc(NNC(=O)c2cc(-c3ccc(F)cc3)c(=O)n(C)c2)cc1F [Example 37, N′-(5-fluoro-6-methoxypyridine-3-yl)-5-(4-fluorophenyl)-1-methyl-6-oxo-1,6-dihydropyridine-3-carbohydrazide] | 0.04 (≈ 0.104 µM) | 0.3 (≈ 0.776 µM) | 0.1 (≈ 0.259 µM) |  |  | 
Cn1cc(C(=O)NNc2cc(F)cc(F)c2)ccc1=O [Example 13, N′-(3,5-difluorophenyl)-1-methyl-6-oxo-1,6-dihydropyridine-3-carbohydrazide] | 0.03 (≈ 0.107 µM) | 0.44 (≈ 1.58 µM) | 0.1 (≈ 0.358 µM) |  |  | 
O=C(NNc1cccc(F)c1)c1c(Cl)cc(=O)n2c1CCC2 [Example 33, 7-chloro-N′-(3-fluorophenyl)-5-oxo-1,2,3,5-tetrahydroindolizine-8-carbohydrazide] | 0.13 (≈ 0.404 µM) | 0.5 (≈ 1.55 µM) |  |  |  | 
Cn1cc(C(=O)NNc2ccc(F)cc2F)ccc1=O [Example 11, N′-(2,4-difluorophenyl)-1-methyl-6-oxo-1,6-dihydropyridine-3-carbohydrazide] | 0.03 (≈ 0.107 µM) | 0.05 (≈ 0.179 µM) |  |  |  | 
Cn1cc(C(=O)NNc2cccc(F)c2)cc(Cl)c1=O [Example 24, 5-chloro-N′-(3-fluorophenyl)-1-methyl-6-oxo-1,6-dihydropyridine-3-carbohydrazide] | 0.06 (≈ 0.203 µM) | 1.8 (≈ 6.09 µM) |  |  |  | 
COc1ncc(NNC(=O)c2cc(-c3ccc(Cl)cc3)c(=O)n(C)c2)cc1F [Example 38, 5-(4-chlorophenyl)-N′-(5-fluoro-6-methoxypyridine-3-yl)-1-methyl-6-oxo-1,6-dihydropyridine-3-carbohydrazide] | 0.02 (≈ 0.0497 µM) | 0.3 (≈ 0.745 µM) | 0.1 (≈ 0.248 µM) |  |  | 
Cn1cc(C(=O)NNc2cccc(Cl)c2)cc(Cl)c1=O [Example 26, 5-chloro-N′-(3-chlorophenyl)-1-methyl-6-oxo-1,6-dihydropyridine-3-carbohydrazide] | 0.06 (≈ 0.192 µM) | 1 (≈ 3.2 µM) |  |  |  | 
O=C(NNc1ccc(F)cc1)c1c(Cl)cc(=O)n2c1CCC2 [Example 34, 7-chloro-N′-(4-fluorophenyl)-5-oxo-1,2,3,5-tetrahydroindolizine-8-carbohydrazide] | 0.25 (≈ 0.777 µM) | 1 (≈ 3.11 µM) |  |  |  | 
Cn1cc(C(=O)NNc2cccc(F)c2)ccc1=O [Example 2, N′-(3-fluorophenyl)-1-methyl-6-oxo-1,6-dihydropyridine-3-carbohydrazide] | 0.02 (≈ 0.0766 µM) |  | 0.1 (≈ 0.383 µM) |  |  | 
COc1ncc(NNC(=O)c2ccc(=O)n(C)c2)cc1F [Example 21, N′-(5-fluoro-6-methoxypyridine-3-yl)-1-methyl-6-oxo-1,6-dihydropyridine-3-carbohydrazide] | 0.03 (≈ 0.103 µM) | 0.5 (≈ 1.71 µM) | 0.1 (≈ 0.342 µM) |  |  | 
CC[C@H](C)C[C@H](C)CCCCCCCCC(=O)N[C@H]1C[C@@H](O)[C@@H](NCCN)NC(=O)[C@@H]2[C@@H](O)CCN2C(=O)[C@H]([C@H](O)CCN)NC(=O)[C@H]([C@H](O)[C@@H](O)c2ccc(O)cc2)NC(=O)[C@@H]2C[C@@H](O)CN2C(=O)[C@H]([C@@H](C)O)NC1=O [caspofungin, reference compound] |  |  |  | 0.25 | 4 | 0.3

The next lines start with results.

MIC80 [1] [µg/mL] | MIC50 [3] [µg/mL] | Structure (SMILES) | MFC [2] [µg/mL] | Candida albicans MIC80 [1] [µg/mL] | Candida albicans MFC [2] [µg/mL] | Aspergillus fumigatus MIC50 [3] [µg/mL]
0.04 (≈ 0.0917 µM) | 0.7 (≈ 1.6 µM) | COc1ncc(NNC(=O)c2cc(-c3ccc(C(F)(F)F)cc3)c(=O)n(C)c2)cc1F [Example 39, N′-(5-fluoro-6-methoxypyridine-3-yl)-1-methyl-6-oxo-5-(4-(trifluoromethyl)phenyl)-1,6-dihydropyridine-3-carbohydrazide] | 0.2 (≈ 0.458 µM) |  |  | 
0.25 (≈ 0.816 µM) | > 32 | OC(Cn1cncn1)(Cn1cncn1)c1ccc(F)cc1F [fluconazole, reference compound] | > 32 |  |  | 
0.04 (≈ 0.102 µM) |  | COc1ncc(NNC(=O)c2cc(-c3ccc(C#N)cc3)c(=O)n(C)c2)cc1F [Example 40, 5-(4-cyanophenyl)-N′-(5-fluoro-6-methoxypyridine-3-yl)-1-methyl-6-oxo-1,6-dihydropyridine-3-carbohydrazide] | 0.2 (≈ 0.508 µM) |  |  | 
0.04 (≈ 0.103 µM) | 0.6 (≈ 1.54 µM) | COc1ncc(NNC(=O)c2ccc(=O)n(-c3cccc(Cl)c3)c2)cc1F [Example 48, 1-(3-chlorophenyl)-N′-(5-fluoro-6-methoxypyridine-3-yl)-6-oxo-1,6-dihydropyridine-3-carbohydrazide] |  |  |  | 
0.08 (≈ 0.189 µM) | 0.7 (≈ 1.65 µM) | O=C(NNc1ccc(F)cc1F)c1ccc(=O)n(Cc2ccc(C(F)(F)F)nc2)c1 [Example 54, N′-(2,4-difluorophenyl)-6-oxo-1-((6-(trifluoromethyl)pyridine-3-yl)methyl)-1,6-dihydropyridine-3-carbohydrazide] |  |  |  | 
0.04 (≈ 0.0943 µM) | 0.7 (≈ 1.65 µM) | O=C(NNc1cc(F)cc(F)c1)c1ccc(=O)n(Cc2ccc(C(F)(F)F)nc2)c1 [Example 53, N′-(3,5-difluorophenyl)-6-oxo-1-((6-(trifluoromethyl)pyridine-3-yl)methyl)-1,6-dihydropyridine-3-carbohydrazide] |  |  |  | 
0.28 (≈ 0.773 µM) | 0.3 (≈ 0.828 µM) | O=C(NNc1ccc(F)cc1F)c1ccc(=O)n(Cc2cscn2)c1 [Example 49, N′-(2,4-difluorophenyl)-6-oxo-1-(thiazol-4-ylmethyl)-1,6-dihydropyridine-3-carbohydrazide] |  |  |  | 
